Test results from patent publication US20230017045A1, “PYRIDINE AND PYRIMIDINE CARBOXYLATE HERBICIDES AND METHODS OF USE THEREOF” (Dow AgroSciences LLC, priority 2017, published 2023).
Like-named read-outs stand apart in the source and are kept apart here.

Test system: test plant species
Experiment: Post-emergent herbicidal activity test (greenhouse, foliar spray, visual growth reduction)
Type: in vivo
Conditions: post-emergence, 336 h, 140 g ai/ha
Outline: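 Greenhouse plants at first–second true leaf stage sprayed overhead at 187 L/ha with compound in acetone/water/isopropanol/DMSO/crop oil/X-77 carrier; controls received solvent blank. Injury rated visually after 14 d on a 0–100% scale versus untreated and control plants, converted to growth reduction.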

[1] = ALOMY: blackgrass (Alopecurus myosuroides), 14 days after application, read-out: Visual Growth Reduction (%) 14 Days After Application, ALOMY
[2] = AMARE: redroot pigweed (Amaranthus retroflexus), 14 days after application, read-out: Visual Growth Reduction (%) 14 Days After Application, AMARE
[3] = AVEFA: wild oat (Avena fatua), 14 days after application, read-out: Visual Growth Reduction (%) 14 Days After Application, AVEFA
[4] = CHEAL: lambsquarters (Chenopodium album), 14 days after application, read-out: Visual Growth Reduction (%) 14 Days After Application, CHEAL
[5] = CIRAR: canada thistle (Cirsium arvense), 14 days after application, read-out: Visual Growth Reduction (%) 14 Days After Application, CIRAR
[6] = CYPES: yellow nutsedge (Cyperus esculentus), 14 days after application, read-out: Visual Growth Reduction (%) 14 Days After Application, CYPES
[7] = DIGSA: crabgrass (Digitaria sanguinalis), 14 days after application, read-out: Visual Growth Reduction (%) 14 Days After Application, DIGSA
[8] = barnyardgrass (Echinochloa crus-galli), 14 Days After Application, read-out: Visual Growth Reduction (%) ECHCG
[9] = common chickweed (Stellaria media), 14 Days After Application, read-out: Visual Growth Reduction (%) STEME
[10] = giant foxtail (Setaria faberi), 14 Days After Application, read-out: Visual Growth Reduction (%) SETFA
[11] = ivy-leaf morning glory (Ipomoea hederacea), 14 Days After Application, read-out: Visual Growth Reduction (%) IPOHE
[12] = johnsongrass (Sorghum vulgare), 14 Days After Application, read-out: Visual Growth Reduction (%) SORVU
[13] = kochia (Bassia scoparia), 14 Days After Application, read-out: Visual Growth Reduction (%) KCHSC
[14] = rice (Oryza sativa), 14 Days After Application, read-out: Visual Growth Reduction (%) ORYSA
[15] = wheat, spring (Triticum aestivum), 14 Days After Application, read-out: Visual Growth Reduction (%) TRZAS
[16] = ECHCG: barnyardgrass (Echinochloa crus-galli), 14 days after application, read-out: Visual Growth Reduction (%) 14 Days After Application, ECHCG
[17] = IPOHE: ivy-leaf morning glory (Ipomoea hederacea), 14 days after application, read-out: Visual Growth Reduction (%) 14 Days After Application, IPOHE
[18] = KCHSC: kochia (Bassia scoparia), 14 days after application, read-out: Visual Growth Reduction (%) 14 Days After Application, KCHSC
[19] = ORYSA: rice (Oryza sativa), 14 days after application, read-out: Visual Growth Reduction (%) 14 Days After Application, ORYSA
[20] = SETFA: giant foxtail (Setaria faberi), 14 days after application, read-out: Visual Growth Reduction (%) 14 Days After Application, SETFA
[21] = SORVU: grain sorghum (Sorghum vulgare), 14 days after application, read-out: Visual Growth Reduction (%) 14 Days After Application, SORVU
[22] = STEME: common chickweed (Stellaria media), 14 days after application, read-out: Visual Growth Reduction (%) 14 Days After Application, STEME
[23] = TRZAS: wheat, spring (Triticum aestivum), 14 days after application, read-out: Visual Growth Reduction (%) 14 Days After Application, TRZAS
[24] = blackgrass (Alopecurus myosuroides), 14 Days After Application, read-out: Visual Growth Reduction (%) ALOMY
[25] = canada thistle (Cirsium arvense), 14 Days After Application, read-out: Visual Growth Reduction (%) CIRAR
[26] = crabgrass (Digitaria sanguinalis), 14 Days After Application, read-out: Visual Growth Reduction (%) DIGSA
[27] = lambsquarters (Chenopodium album), 14 Days After Application, read-out: Visual Growth Reduction (%) CHEAL
[28] = redroot pigweed (Amaranthus retroflexus), 14 Days After Application, read-out: Visual Growth Reduction (%) AMARE
[29] = wild oat (Avena fatua), 14 Days After Application, read-out: Visual Growth Reduction (%) AVEFA
[30] = yellow nutsedge (Cyperus esculentus), 14 Days After Application, read-out: Visual Growth Reduction (%) CYPES

Compound	pest or weed control at 140 g/ha [1] [%]	pest or weed control at 140 g/ha [2] [%]	pest or weed control at 140 g/ha [3] [%]	pest or weed control at 140 g/ha [4] [%]	pest or weed control at 140 g/ha [5] [%]	pest or weed control at 140 g/ha [6] [%]	pest or weed control at 140 g/ha [7] [%]	pest or weed control at 140 g/ha [16] [%]	pest or weed control at 140 g/ha [17] [%]	pest or weed control at 140 g/ha [18] [%]	pest or weed control at 140 g/ha [19] [%]	pest or weed control at 140 g/ha [20] [%]	pest or weed control at 140 g/ha [21] [%]	pest or weed control at 140 g/ha [22] [%]	pest or weed control at 140 g/ha [23] [%]	pest or weed control at 140 g/ha [24] [%]	pest or weed control at 140 g/ha [25] [%]	pest or weed control at 140 g/ha [26] [%]	pest or weed control at 140 g/ha [27] [%]	pest or weed control at 140 g/ha [28] [%]	other results
COC(=O)c1nc(-c2ccc(C(F)(F)F)nc2Cl)ccc1Cl [F8, Methyl 2′,5-dichloro-6′-(trifluoromethyl)-[2,3′-bipyridine]-6-carboxylate]	0 to 29	95 to 100	0 to 29	95 to 100	85 to 94	45 to 59	60 to 74														pest or weed control at 140 g/ha [8]: 30 to 44%; pest or weed control at 140 g/ha [9]: 0 to 29%; pest or weed control at 140 g/ha [10]: 0 to 29%; pest or weed control at 140 g/ha [11]: 95 to 100%; pest or weed control at 140 g/ha [12]: 85 to 94%; pest or weed control at 140 g/ha [13]: 85 to 94%; pest or weed control at 140 g/ha [14]: 0 to 29%; pest or weed control at 140 g/ha [15]: 30 to 44%
COC(=O)c1nc(-c2ccc(OS(C)(=O)=O)cc2)c(F)cc1Cl [F159, Methyl 3-chloro-5-fluoro-6-(4-((methylsulfonyl)oxy)phenyl)picolinate]	0 to 29	60 to 74	0 to 29	45 to 59	30 to 44	0 to 29	60 to 74	30 to 44	45 to 59	0 to 29	0 to 29	60 to 74	30 to 44	0 to 29	0 to 29						
COC(=O)c1nc(-c2c(Cl)cc(C(F)(F)F)cc2Cl)ccc1Cl [F88, Methyl 3-chloro-6-(2,6-dichloro-4-(trifluoromethyl)phenyl)picolinate]	60 to 74	95 to 100	0 to 29	95 to 100	85 to 94	0 to 29	85 to 94	75 to 84	75 to 84	45 to 59	0 to 29	85 to 94	85 to 94	0 to 29	30 to 44						
COC(=O)c1nc(-c2cc(O)c(Cl)cc2F)ccc1Cl [F128, Methyl 3-chloro-6-(4-chloro-2-fluoro-5-hydroxyphenyl) picolinate]	0 to 29	0 to 29	0 to 29	0 to 29	0 to 29	0 to 29	0 to 29	0 to 29	0 to 29	0 to 29	0 to 29	0 to 29	0 to 29	0 to 29	0 to 29						
COC(=O)c1nc(-c2ccc3c(c2)OC(F)(F)O3)c(F)cc1Cl [F258, Methyl 3-chloro-6-(2,2-difluorobenzo[d][1,3]dioxol-5-yl)-5-fluoropicolinate]								0 to 29	95 to 100	0 to 29	0 to 29	0 to 29	75 to 84	0 to 29	0 to 29	0 to 29	0 to 29	85 to 94	75 to 84	60 to 74	pest or weed control at 140 g/ha [29]: 0 to 29%; pest or weed control at 140 g/ha [30]: 30 to 44%
COC(=O)c1nc(-c2cc(C)c(C(F)(F)F)cc2F)ccc1Cl [F361, Methyl 3-chloro-6-(2-fluoro-5-methyl-4-(trifluoromethyl)phenyl)picolinate]								0 to 29	75 to 84	0 to 29	0 to 29	0 to 29	0 to 29	0 to 29	0 to 29	0 to 29	0 to 29	0 to 29	85 to 94	45 to 59	pest or weed control at 140 g/ha [29]: 0 to 29%; pest or weed control at 140 g/ha [30]: 0 to 29%
COC(=O)c1nc(-c2ccc(C(F)(F)F)cc2Cl)ccc1C#N [F10, Methyl 6-(2-chloro-4-(trifluoromethyl)phenyl)-3-cyanopicolinate]	0 to 29	30 to 44	0 to 29	45 to 59	30 to 44	45 to 59	45 to 59														pest or weed control at 140 g/ha [8]: 0 to 29%; pest or weed control at 140 g/ha [9]: 0 to 29%; pest or weed control at 140 g/ha [10]: 0 to 29%; pest or weed control at 140 g/ha [11]: 60 to 74%; pest or weed control at 140 g/ha [12]: 30 to 44%; pest or weed control at 140 g/ha [13]: 0 to 29%; pest or weed control at 140 g/ha [14]: 0 to 29%; pest or weed control at 140 g/ha [15]: 0 to 29%
COC(=O)c1nc(-c2ccc(Cl)c(CF)c2F)ccc1Cl [F274, Methyl 3-chloro-6-(4-chloro-2-fluoro-3-(fluoromethyl)phenyl) picolinate]								0 to 29	0 to 29	0 to 29	0 to 29	0 to 29	0 to 29	0 to 29	0 to 29	0 to 29	60 to 74	0 to 29	0 to 29	0 to 29	pest or weed control at 140 g/ha [29]: 0 to 29%; pest or weed control at 140 g/ha [30]: 0 to 29%
COC(=O)c1nc(-c2ccc3c(c2F)OCO3)ccc1Cl [F85, Methyl 3-chloro-6-(4-fluorobenzo[d][1,3]dioxol-5-yl)picolinate]	0 to 29	0 to 29	0 to 29	75 to 84	0 to 29	0 to 29	0 to 29	30 to 44	0 to 29	45 to 59	0 to 29	0 to 29	0 to 29	0 to 29	0 to 29						
